According to patent US6423741B1, “Anti-microbial composition and method for producing the same” (priority 1998, dated 2002):
Converted amounts (≈) assume the structure as drawn. Like-named read-outs stand apart in the source and are kept apart here.

Key:
[1] = tested on: Escherchia coli (Nal′); experiment: Frequency of spontaneous resistance on plates with α-arteether; assay type: cell-based; conditions: 1000 μg/ml α-arteether
Description: (§1) Further to determine the frequency of spontaneous resistant mutants in Escherchia coil and Mycobacterium smegmatis for α-arteether, the applicants used the nalidixic acid resistant mutants from the earlier example as the wild type strains since those were sensitive to α-arteether to isolate α-arteether resistant colonies. Known titers of broth cultures of the mutant (Nal) bacteria were diluted and plated in petriplates containing 1000 μg/ml α-arteether, and the resistant colonies thus developed were counted to determine the frequencies (Table 2).

[2] = tested on: Mycobacterium smegmatis (Nal′); experiment: as above; assay type: cell-based; conditions: 1000 μg/ml α-arteether
Description: as §1

[3] = tested on: M1 (Mutant), gyr A− mutant; experiment: Disc sensitivity of E. coli strains; assay type: cell-based; conditions: gyr A− mutant (M1) developed from wild type; no dose stated
Source text: (§2) Since pathogens always try to counter the drug by genetically modifying itself through mutation(s) in the region of the drug target gene, it is necessary to kill those mutant(s) resistant cells for effective drug management. With this rationale, the applicants evaluated a selected drug resistant mutant strain (Ml) for nalidixic acid (wild type strains being sensitive to nalidixic acid). This mutant strain developed from wild type was defective in Gyr A subunit confirmed by mobilizing a plasmid bearing a wild type gyr A gene. […] Similarly a second mutant (M2) developed from the gyr A^− mutant strain (Nal^r) became sensitive to nalidixic acid which being resistant to α arteether (Table 3). It was noted that invariably among all the tested strains, those resistant to nalidixic acid were sensitive to α arteether and the strains sensitive to nalidixic acid were resistant to cc arteether. […] This is so, because the resistance to nalidixic acid is developed by gyr A mutation and the mutants will be killed by α arteether while, the α-arteether resistant strains will automatically become nalidixic acid sensitive and thus will be killed by nalidixic acid and this way all the spontaneous resistant bacteria could be contained.

[4] = tested on: M2 (Mutant); experiment: Disc sensitivity of E. coli strains; assay type: cell-based; conditions: second mutant (M2) developed from gyr A− mutant; no dose stated
Source text: as §2

[5] = tested on: Escherchia coli mutant A1; experiment: Growth (absorbance at 620 nm) at increasing concentrations of α-arteether; assay type: cell-based
Description: (§3) To determine the correlation between nalidixic acid and α-arteether sensitivity, the applicants selected Escherchia coli cultures which were resistant to nalidixic acid at varying degrees (concentrations). Based on the minimal inhibitory concentration of nalidixic acid, Escherchia coli mutants were grouped as highly sensitive (MIC less than or equal to 10 μg/ml), resistant (MIC 10 to 200 μg/ml), […] (MIC more than or equal to 200 μg/ml). These strains were then tested for their sensitivity against α-arteether by estimating their growth (Absorbance at 620 nano meter wavelength of light) in presence of increasing concentrations of α-arteether. The absorbance data was converted to percent growth by considering the absorbance in control as 100%. The growth was then quantified as follows: 1.) greater than 80% growth : the mutant is highly resistant to α-arteether; 2.) 20 to 80% growth : the mutant is moderately resistant to α-arteether; 3.) less than 20% growth : the mutant is sensitive to α-arteether. […] In other words Escherchia coli mutants most resistant to nalidixic acid are most efficiently killed by α-arteether (Table 4) and vice versa.

[6] = tested on: Escherchia coli mutant A2; experiment: as above; assay type: cell-based
Description: as §3

[7] = tested on: Escherchia coli mutant A3; experiment: as above; assay type: cell-based
Description: as §3

[8] = tested on: Escherchia coli mutant A4; experiment: as above; assay type: cell-based
Description: as §3

[9] = tested on: E. coli Wildtype; experiment: Resistance study, combination treatment vs mixed mutant cultures (optical density at 620 nm); assay type: cell-based
Source text: (§4) Continuing with the experimentation the applicants analyzed the growth of the mutant strains individually and upon co-cultivation compared to the wild type in presence of the compounds individually and in combination.

[10] = tested on: M1 + M2 (co-cultivation); experiment: as above; assay type: cell-based, E. coli
Source text: as §4

[11] = tested on: M1; experiment: as above; assay type: cell-based, E. coli
Source text: as §4

[12] = tested on: M2; experiment: as above; assay type: cell-based, E. coli
Source text: as §4

[13] = Activity at different pH; conditions: pH (neutral)
Description: Further, it is worth noting here that the said compounds of the invention are already in use for human consumption and the safety data of applications of the compounds are already known. As a known example of prior art (Asthana, O. P, Srivastava, J. S and Valecha, N., 1997. Current status of the artemisinin derivatives in the treatment of malaria with focus on arteether. Journal of Parasitic Diseases. 21: 1-12.), α/β arteether mixture is given at 150 mg doses (one dose per day, for 3 days) as intramuscular injection for treatment of drug resistant and cerebral malaria cases. The injections in the mentioned preparation are prepared in neutralized vegetable oil. Both the compounds of invention that is, α arteether and the quinolones have shown the best activities at pH 7.0 (neutral) in our experiments. Thus, the composition of this invention can be used to treat bacterial infections, particularly the cases where the emergence of drug resistance is known to have high incidence level. The said composition/composition can be employed for prevention of resistance development through random mutations occurring in bacteria against antibiotics. Various classes of quinolone drugs thus can be administered along with α-arteether in form of injection by suspending the compound in the neutralised vegetable oil. […]

[14] = tested on: gyr mutant (Nal^r) strains of E.coli; conditions: earlier invention; cited from earlier work
[15] = tested on: wild type (Nal^s) strains of E.coli; conditions: earlier invention; cited from earlier work
[16] = tested on: Escherchia coli (Wild type); experiment: Frequency of spontaneous resistance on poison agar with nalidixic acid; assay type: cell-based; conditions: 50 μg/ml nalidixic acid poison agar
Description: (§5) In an experiment, the applicants first determined the frequency of spontaneous mutations in the bacteria Escherchia coil (Kumar, S. 1976. Journal of Bacteriology, 125: 545-555.) and Mycobacterium smegmatis (Snapper, S. B., Melton, R. E., Mustafa, S., Kieser, T. and Jacobs, W. R. 1990. Molecular Microbiology. 4:1911-1919.) leading to subsequent resistance development through selection in the presence of these drugs. Known titers of broth cultures of the bacteria were diluted and plated on poison agar medium containing 50 μg/ml nalidixic acid, and the resistant colonies thus developed were counted to estimate the frequency of drug resistance (Nal) development (Table 1).

[17] = tested on: Mycobacterium smegmatis (Wild type); experiment: as above; assay type: cell-based; conditions: 50 μg/ml nalidixic acid poison agar
Description: as §5

[18] = tested on: E. coli (Wildtype); experiment: Disc sensitivity of E. coli strains; assay type: cell-based; conditions: wild type strains; no dose stated
Source text: as §2

[19] = tested on: Escherchia coli mutant A1; experiment: Minimum inhibitory concentration of nalidixic acid; assay type: cell-based
Description: as §3

[20] = tested on: Escherchia coli mutant A2; experiment: Minimum inhibitory concentration of nalidixic acid; assay type: cell-based
Description: as §3

[21] = tested on: Escherchia coli mutant A3; experiment: Minimum inhibitory concentration of nalidixic acid; assay type: cell-based
Description: as §3

[22] = tested on: Escherchia coli mutant A4; experiment: Minimum inhibitory concentration of nalidixic acid; assay type: cell-based
Description: as §3

[23] = read-out: Minimum inhibitory concentration of nalidixic acid
[24] = read-out: Group by minimal inhibitory concentration of nalidixic acid

Compound: CCO[C@@H]1O[C@@H]2O[C@]3(C)CC[C@H]4[C@H](C)CC[C@@H]([C@H]1C)[C@@]24OO3 [α-arteether]
- Frequency of spontaneous resistance developed against α-arteether [1]: 1.8 × 10^−9
- Frequency of spontaneous resistance developed against α-arteether [2]: 1.1 × 10^−10
- Sensitivity of the strain [3]: sensitive
- Sensitivity of the strain [4]: resistant
- Growth (absorbance at 620 nm) ([5]; 400 μg/ml α-arteether): 0.858
- Percent growth (absorbance in control as 100%) ([5]; 400 μg/ml α-arteether): (93%)
- Growth (absorbance at 620 nm) ([5]; 800 μg/ml α-arteether): 0.854
- Percent growth (absorbance in control as 100%) ([5]; 800 μg/ml α-arteether): (93%)
- Growth (absorbance at 620 nm) ([5]; 1200 μg/ml α-arteether): 0.817
- Percent growth (absorbance in control as 100%) ([5]; 1200 μg/ml α-arteether): (89%)
- Growth (absorbance at 620 nm) ([6]; 400 μg/ml α-arteether): 0.607
- Percent growth (absorbance in control as 100%) ([6]; 400 μg/ml α-arteether): (66%)
- Growth (absorbance at 620 nm) ([6]; 800 μg/ml α-arteether): 0.539
- Percent growth (absorbance in control as 100%) ([6]; 800 μg/ml α-arteether): (58%)
- Growth (absorbance at 620 nm) ([6]; 1200 μg/ml α-arteether): 0.458
- Percent growth (absorbance in control as 100%) ([6]; 1200 μg/ml α-arteether): (50%)
- Growth (absorbance at 620 nm) ([7]; 400 μg/ml α-arteether): 0.421
- Percent growth (absorbance in control as 100%) ([7]; 400 μg/ml α-arteether): (50%)
- Growth (absorbance at 620 nm) ([7]; 800 μg/ml α-arteether): 0.405
- Percent growth (absorbance in control as 100%) ([7]; 800 μg/ml α-arteether): (47%)
- Growth (absorbance at 620 nm) ([7]; 1200 μg/ml α-arteether): 0.390
- Percent growth (absorbance in control as 100%) ([7]; 1200 μg/ml α-arteether): 46%
- Growth (absorbance at 620 nm) ([8]; 400 μg/ml α-arteether): 0.017
- Percent growth (absorbance in control as 100%) ([8]; 400 μg/ml α-arteether): (2%)
- Growth (absorbance at 620 nm) ([8]; 800 μg/ml α-arteether): 0.007
- Percent growth (absorbance in control as 100%) ([8]; 800 μg/ml α-arteether): (0.7%)
- Growth (absorbance at 620 nm) ([8]; 1200 μg/ml α-arteether): 0.000
- Percent growth (absorbance in control as 100%) ([8]; 1200 μg/ml α-arteether): (0%)
- Optical density at 620 nanometer ([9]; α arteether 400 μg/ml): 0.890
- Optical density at 620 nanometer ([9]; α arteether 800 μg/ml): 0.90
- Optical density at 620 nanometer ([10]; α arteether 400 μg/ml): 0.920
- Optical density at 620 nanometer ([10]; α arteether 800 μg/ml): 0.930
- Optical density at 620 nanometer ([11]; α arteether 400 μg/ml): 0.000
- Optical density at 620 nanometer ([11]; α arteether 800 μg/ml): 0.000
- Optical density at 620 nanometer ([12]; α arteether 400 μg/ml): 0.900
- Optical density at 620 nanometer ([12]; α arteether 800 μg/ml): 0.91
- pH of best activities [13]: 7.0
- Effectiveness against the strains [14]: effective
- Effectiveness against the strains [15]: ineffective

Compound: CCn1cc(C(=O)O)c(=O)c2ccc(C)nc21 [nalidixic acid]
- Frequency of spontaneous resistance developed against Nalidixic acid [16]: 7.1 × 10^−9
- Frequency of spontaneous resistance developed against Nalidixic acid [17]: 1.0 × 10^−10
- Sensitivity of the strain [18]: sensitive
- Sensitivity of the strain [3]: resistant
- Sensitivity of the strain [4]: sensitive
- Group by minimal inhibitory concentration of nalidixic acid ([19]; mutant A1): sensitive)
- MIC [19, 23]: < 4 µg/mL
- MIC [20, 24]: 10 to 200 µg/mL (≈ 43.1 to 861 µM)
- MIC [20, 23]: 37.5 µg/mL (≈ 161 µM)
- MIC [21, 24]: 10 to 200 µg/mL (≈ 43.1 to 861 µM)
- MIC [21, 23]: 150 µg/mL (≈ 646 µM)
- MIC [22, 24]: > 200 µg/mL
- MIC [22, 23]: > 300 µg/mL
- Optical density at 620 nanometer ([9]; nalidixic acid 50 μg/ml): 0.000
- Optical density at 620 nanometer ([9]; nalidixic acid 300 μg/ml): 0.000
- Optical density at 620 nanometer ([10]; nalidixic acid 50 μg/ml): 0.910
- Optical density at 620 nanometer ([10]; nalidixic acid 300 μg/ml): 0.920
- Optical density at 620 nanometer ([11]; nalidixic acid 50 μg/ml): 0.950
- Optical density at 620 nanometer ([11]; nalidixic acid 300 μg/ml): 0.960
- Optical density at 620 nanometer ([12]; nalidixic acid 50 μg/ml): 0.000
- Optical density at 620 nanometer ([12]; nalidixic acid 300 μg/ml): 0.000
